The values below come from US8703979B2, “Preparation of anticancer-active tricyclic compounds via alkyne coupling reaction” (Taheebo Japan Co., Ltd., priority 2010, dated 2014).

A value given as a limit tells only on which side of the number the result lay.

Take `CC(O)c1cc2c(s1)C(=O)c1cccc(O)c1C2=O` (stereo not shown) [Example 20, 2-(1-hydroxyethyl)-5-hydroxynaphtho[2,3-b]thiophene-4,9-dione]: the melting point (in general, the temperature of the solid-liquid transition) was > 193 °C (dec.).
